In patent US12195469B2, “Compounds having PDE9A inhibitory activity, and pharmaceutical uses thereof” (KOREA RESEARCH INSTITUTE OF CHEMICAL TECHNOLOGY, priority 2018, dated 2025):

Each compound was assayed against PDE9A (Homo sapiens (Human), UniProt O76083) (assay: PDE9A inhibition, fluorescence polarization assay (IMAP-FP screening express kit)). Settings: 10 μM of the compound.
Format: biochemical
Method: The inhibitory activity of the representative compounds according to the present invention against phosphodiesterase 9A was tested based on the polarization assay (IMAP-FP screening express kit) provided by MDS (MDS Analytical Technologies, Sunyvale, CA, USA). As a buffer solution, a reaction solution (a reaction solution containing 0.01% Tween 20 provided by MDS was diluted 5 times, then 5 mM DTT is added) and a polarization detection solution (binding solution A and B provided by MDS were mixed at a ratio of 3:1 and IMAP binding reagent 1/600 was added) were prepared. 100 μM of the substrate (Fl-cGMP substrate; MDS) and 3.6 μg/ml of the enzyme PDE9A (ab54113; abcam) were prepared. 3.6 μg/ml PDE9A and 100 μM substrate were diluted to 20 ng/ml (final reaction concentration: 5 ng/ml) and 400 nM (final reaction concentration: 100 nM), respectively. The buffer solution used for all dilution and preparation processes was 1× reaction solution with 1 mM DTT added, and the polarization detection solution was used to induce polarization at the end.
The prepared samples were dispensed on black microplates (Multiwell 384 well plates, #3573, Corning Life Sciences, Lowell, MA, USA) using a 16-channel pipette (multi 16-channel, Finnpipette, Thermo Scientific, Essex, UK). The total reaction volume per well is 20 μl. At this time, 10 μl of 2% DMSO, 5 μl of substrate solution, and 5 μl of reaction solution were used as a negative control, and 10 μl of 2% DMSO, 5 μl of substrate solution, and 5 μl of PDE9A solution were used as a positive control. As the experimental group, 10 μl of the compound prepared in Example, 5 μl of the substrate solution, and 5 μl of the PDE9A solution were used. After pretreatment between the compound and the enzyme was performed for about 10 minutes before the enzyme-substrate reaction, 5 μl of cGMP was added to induce the enzyme reaction. During the reaction, each compound, enzyme, and substrate occupied 50%, 25%, and 25% of the total volume, respectively, and they were prepared at high concentrations of 2, 4, and 4 times, respectively, immediately before addition. After the enzymatic reaction, it was shaken lightly for 1 minute and the enzyme reaction was induced at room temperature for 1 hour. Then, 60 μl of a polarization detection solution prepared in advance was added to induce polarization.
Nanoparticles composed of trivalent metal ions are mixed in the fluorescence detection solution, which combines with phosphoric acid expose by enzymatic reaction to increase the molecular weight and induce polarization. After leaving for 2 hours at room temperature, the polarization (Fluorescence Polarization, FP) value was measured using a multilabel counter (Envision, PerkinElmer, Turku, Finland) (emission wavelength: P-535 nm, S-535 nm, excitation wavelength: 480 nm), and the result was expressed as an IC50 value, which is the concentration of the compound that inhibited PDE9A by 50% in vitro (Table 2).

Chain of PDE9A (O76083 whole entry): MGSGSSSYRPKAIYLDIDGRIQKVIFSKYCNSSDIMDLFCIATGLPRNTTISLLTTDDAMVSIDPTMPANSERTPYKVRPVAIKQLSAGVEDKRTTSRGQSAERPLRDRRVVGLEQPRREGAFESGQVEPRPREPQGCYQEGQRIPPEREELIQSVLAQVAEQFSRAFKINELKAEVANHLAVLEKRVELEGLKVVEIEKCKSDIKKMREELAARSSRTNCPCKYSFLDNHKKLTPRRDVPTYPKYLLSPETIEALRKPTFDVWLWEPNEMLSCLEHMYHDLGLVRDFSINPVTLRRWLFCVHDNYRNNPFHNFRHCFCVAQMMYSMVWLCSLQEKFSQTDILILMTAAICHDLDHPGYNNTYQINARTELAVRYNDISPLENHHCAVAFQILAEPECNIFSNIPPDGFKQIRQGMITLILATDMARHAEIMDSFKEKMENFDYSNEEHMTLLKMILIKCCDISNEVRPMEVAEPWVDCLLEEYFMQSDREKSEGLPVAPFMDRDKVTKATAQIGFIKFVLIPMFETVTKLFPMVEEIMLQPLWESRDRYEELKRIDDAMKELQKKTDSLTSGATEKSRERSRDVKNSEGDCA

inhibition at 10 µM [%]	SMILES
10.3	O=c1[nH]c(SCc2nc3cc(-c4ccccc4)ccc3o2)nc2c1cnn2-c1ccccc1 [Example 25, 1-phenyl-6-(((5-phenylbenzo[d]oxazol-2-yl)methyl)thio)-1,5-dihydro-4H-pyrazolo[3,4-d]pyrimidin-4-one]

Same assay, conditions: Fl-cGMP substrate 100 nM, PDE9A 5 ng/ml, 1 hour at room temperature

SMILES	IC50 [nM]
Cc1ccc2oc(CSc3nc4c(cnn4-c4ccccc4)c(=O)[nH]3)nc2c1 [Example 3, 6-(((5-methylbenzo[d]oxazol-2-yl)methyl)thio)-1-phenyl-1,5-dihydro-4H-pyrazolo[3,4-d]pyrimidin-4-one]	81
O=c1[nH]c(SCc2nc3cc(F)ccc3o2)nc2c1cnn2-c1ccccc1 [Example 4, 6-(((5-fluorobenzo[d]oxazol-2-yl)methyl)thio)-1-phenyl-1,5-dihydro-4H-pyrazolo[3,4-d]pyrimidin-4-one]	83
Cc1ccc2nc(CSc3nc4c(cnn4-c4ccccc4)c(=O)[nH]3)oc2c1 [Example 5, 6-(((6-methylbenzo[d]oxazol-2-yl)methyl)thio)-1-phenyl-1,5-dihydro-4H-pyrazolol[3,4-d]pyrimidin-4-one]	49
O=c1[nH]c(SCc2nc3cc(Cl)ccc3o2)nc2c1cnn2-c1ccccc1 [Example 6, 6-(((5-chlorobenzo[d]oxazol-2-yl)methyl)thio)-1-phenyl-1,5-dihydro-4H-pyrazolo[3,4-d]pyrimidin-4-one]	190
Cc1ccc2nc(CSc3nc4c(cnn4C(C)C)c(=O)[nH]3)oc2c1 [Example 18, 6-(((6-methylbenzo[d]oxazol-2-yl)methyl)thio)-1-isopropyl-1,5-dihydro-4H-pyrazolo[3,4-d]pyrimidin-4-one]	4
CC(Sc1nc2c(cnn2-c2ccccc2)c(=O)[nH]1)c1nc2ccccc2o1 (stereo not drawn) [Example 19, 6-((1-(benzo[d]oxazol-2-yl)ethyl)thio)-1-phenyl-1,5-dihydro-4H-pyrazolo[3,4-d]pyrimidin-4-one]	28
Cc1ccc2nc(C(C)Sc3nc4c(cnn4C4CCC(F)(F)CC4)c(=O)[nH]3)oc2c1 (stereo not drawn) [Example 22, 1-(4,4-difluorocyclohexyl)-6-((1-(6-methylbenzo[d]oxazol-2-yl)ethyl)thio)-1,5-dihydro-4H-pyrazolo[3,4-d]pyrimidin-4-one]	6
Cc1ccc2nc(C(C)Sc3nc4c(cnn4C4CCOCC4)c(=O)[nH]3)oc2c1 (stereo not drawn) [Example 23, 6-((1-(6-methylbenzo[d]oxazol-2-yl)ethyl)thio)-1-(tetrahydro-2H-pyran-4-yl)-1,5-dihydro-4H-pyrazolo[3,4-d]pyrimidin-4-one]	2
Cc1ccc2nc(C(C)Sc3nc4c(cnn4C4CCSCC4)c(=O)[nH]3)oc2c1 (stereo not drawn) [Example 24, 6-((1-(6-methylbenzo[d]oxazol-2-yl)ethyl)thio)-1-(tetrahydro-2H-thiopyran-4-yl)-1,5-dihydro-4H-pyrazolo[3,4-d]pyrimidin-4-one]	5
Cc1cccc2oc(CSc3nc4c(cnn4-c4ccccc4)c(=O)[nH]3)nc12 [Example 26, 6-(((4-methylbenzo[d]oxazol-2-yl)methyl)thio)-1-phenyl-1,5-dihydro-4H-pyrazole[3,4-d]pyrimidin-4-one]	140
CC(C)(C)c1ccc2oc(CSc3nc4c(cnn4-c4ccccc4)c(=O)[nH]3)nc2c1 [Example 27, 6-(((5-(tert-butyl)benzo[d]oxazol-2-yl)methyl)thio)-1-phenyl-1,5-dihydro-4H-pyrazolo[3,4-d]pyrimidin-4-one]	6630

Other lines, results leading:

IC50 [nM]	SMILES
5	O=c1[nH]c(SCc2nc3ccccc3o2)nc2c1cnn2C1CCOCC1 [Example 1, 6-((benzo[d]oxazol-2-ylmethyl)thio)-1-(tetrahydro-2H-pyran-4-yl)-1,5-dihydro-4H-pyrazolo[3,4-d]pyrimidin-4-one]
49	O=c1[nH]c(SCc2nc3ccccc3o2)nc2c1cnn2-c1ccccc1 [Example 2, 6-((benzo[d]oxazol-2-ylmethyl)thio)-1-phenyl-1,5-dihydro-4H-pyrazolo[3,4-d]pyrimidin-4-one]
100	O=c1[nH]c(SCc2nc3cc(Br)ccc3o2)nc2c1cnn2-c1ccccc1 [Example 7, 6-(((5-bromobenzo[d]oxazol-2-yl)methyl)thio)-1-phenyl-1,5-dihydro-4H-pyrazolo[3,4-d]pyrimidin-4-one]
5	O=c1[nH]c(SCc2nc3ccccc3o2)nc2c1cnn2C1CCC(F)(F)CC1 [Example 8, 6-((benzo[d]oxazol-2-ylmethyl)thio)-1-(4,4-difluorocyclohexyl)-1,5-dihydro-4H-pyrazolo[3,4-d]pyrimidin-4-one]
6	O=c1[nH]c(SCc2nc3ccccc3o2)nc2c1cnn2C1CCSCC1 [Example 9, 6-((benzo[d]oxazol-2-ylmethyl)thio)-1-(tetrahydro-2H-thiopyran-4-yl)-1,5-dihydro-4H-pyrazolo[3,4-d]pyrimidin-4-one]
220	O=c1[nH]c(SCc2nc3ccccc3o2)nc2c1cnn2C1CC1 [Example 10, 6-((benzo[d]oxazol-2-ylmethyl)thio)-1-cyclopropyl-1,5-dihydro-4H-pyrazolo[3,4-d]pyrimidin-4-one]
6	CC(C)n1ncc2c(=O)[nH]c(SCc3nc4ccccc4o3)nc21 [Example 11, 6-((benzo[d]oxazol-2-ylmethyl)thio)-1-isopropyl-1,5-dihydro-4H-pyrazolo[3,4-d]pyrimidin-4-one]
4	O=c1[nH]c(SCc2nc3ccccc3o2)nc2c1cnn2C1CCCCC1 [Example 12, 6-((benzo[d]oxazol-2-ylmethyl)thio)-1-cyclohexyl-1,5-dihydro-4H-pyrazolol[3,4-d]pyrimidin-4-one]
12	Cc1ccc2nc(CSc3nc4c(cnn4C4CCC(F)(F)CC4)c(=O)[nH]3)oc2c1 [Example 13, 6-(((6-methylbenzo[d]oxazol-2-yl)methyl)thio)-1-(4,4-difluorocyclohexyl)-1,5-dihydro-4H-pyrazolo[3,4-d]pyrimidin-4-one]
4	Cc1ccc2nc(CSc3nc4c(cnn4C4CCOCC4)c(=O)[nH]3)oc2c1 [Example 14, 6-(((6-methylbenzo[d]oxazol-2-yl)methyl)thio)-1-(tetrahydro-2H-pyran-4-yl)-1,5-dihydro-4H-pyrazolo[3,4-d]pyrimidin-4-one]
10	Cc1ccc2nc(CSc3nc4c(cnn4C4CCSCC4)c(=O)[nH]3)oc2c1 [Example 15, 6-(((6-methylbenzo[d]oxazol-2-yl)methyl)thio)-1-(tetrahydro-2H-thiopyran-4-yl)-1,5-dihydro-4H-pyrazolo[3,4-d]pyrimidin-4-one]
6	Cc1ccc2nc(CSc3nc4c(cnn4C4CCCCC4)c(=O)[nH]3)oc2c1 [Example 16, 6-(((6-methylbenzo[d]oxazol-2-yl)methyl)thio)-1-cyclohexyl-1,5-dihydro-4H-pyrazolo[3,4-d]pyrimidin-4-one]
190	Cc1ccc2nc(CSc3nc4c(cnn4C4CC4)c(=O)[nH]3)oc2c1 [Example 17, 6-(((6-methylbenzo[d]oxazol-2-yl)methyl)thio)-1-cyclopropyl-1,5-dihydro-4H-pyrazolo[3,4-d]pyrimidin-4-one]
6	CC(Sc1nc2c(cnn2C2CCC(F)(F)CC2)c(=O)[nH]1)c1nc2ccccc2o1 (stereo not drawn) [Example 20]
3	CC(Sc1nc2c(cnn2C2CCOCC2)c(=O)[nH]1)c1nc2ccccc2o1 (stereo not drawn) [Example 21]
